According to patent publication US11939361B2, “Compositions of peptide inhibitors of Interleukin-23 receptor” (Janssen Pharmaceutica NV, priority 2020, dated 2024):

Columns and labels:
[1] = Rat PK Study 1: intraduodenal/intracolonic dosing with absorption enhancers; type: in vivo, Sprague Dawley rats; conditions: for AUC(0-inf) / AUC(0-t) / Cmax / Tmax: male, Sprague Dawley, plasma, 10 mg/kg
Method: In this Example, a screen of various absorption enhancers was assessed. […] The following absorption enhancers were tested: sodium caprate (NaCl0), sodium salcaprozate (SNAC), sucrose laureate, Peptelligence (proprietary technology from Enteris Pharma-undisclosed composition) and Labrasol. The solutions were dosed by intracolonic (IC) or intraduodenal (ID) injection to rats. […] NaCl0 gave the highest systemic exposure followed by Peptelligence, then Labrasol, then SNAC, and finally sucrose laureate. Accordingly, sodium caprate was determined to be a preferred absorption enhancer. […] Therefore, the systemic exposure is likely to be high enough to afford systemic activity.
The following absorption enhancers were evaluated: sodium caprate (NaCl0, 100 mg/kg), SNAC (100 mg/kg), sucrose laurate (100 mg/kg), Enteris A (proprietary technology of Enteris Pharma) (60 mg/kg), and Labrasol (100 mg/kg).

[2] = tested on: rat IL-23 induced skin inflammation model; assay: Rat IL-23 induced ear thickening; type: in vivo, Sprague-Dawley rats; set-up: key to IL-23 induced ear thickening, comparison to control (significance): ns: not significant; **: p < 0.01; ***: p < 0.001; ****: p < 0.0001; conditions: for IL-23 induced ear thickening, comparison to control (significance): control Vehicle
Method: Ear inflammation was induced in Sprague-Dawley rats by daily intradermal injection of recombinant rat IL-23 on study days 0-3. Treatment with the peptide of SEQ ID NO: 1 (dose response by oral gavage; 1, 3, 10, 30, 100, and 300 mg/kg, twice a day) was initiated prophylactically starting one day prior to and continued through day 3 after induction of inflammation. All rats were humanely euthanized on day 4. An anti-IL-23 monoclonal antibody (administered intraperitoneally on days −1 and day 3) was included in all studies as a positive control and comparator.
Recombinant rat IL-23 was diluted with PBS to a concentration of 75 μg/mL, divided into 2.0 mL aliquots, and stored at −80° C. Daily from day 0 through day 3, rats were anesthetized with isoflurane and IL-23 was intradermally injected (i.d.) into the right ear (1.5 μg in a volume of 20 μL). In the control group, 20 μL of PBS was injected.
Starting the morning prior to IL-23 injection through the evening of day 3, rats were dosed with either vehicle (phosphate buffer) or the peptide of SEQ ID NO: 1 compound twice daily (approximately 10 hours apart between doses during the day) by oral gavage (p.o.) in a volume of 5 mL/kg. In one experiment, the peptide of SEQ ID NO: 1 was also administered subcutaneously (s.c.) in a volume of 5 mL/kg.
Anti-IL-23p19 antibody or isotype antibody was administered via intraperitoneal injection (i.p.) in a volume of 5 mL/kg on days −1 and 3.
The purpose of the rat ear thickening experiment is to determine whether the orally dosed peptide of SEQ ID NO: 1 has sufficient systemic exposure to provide inhibition of IL-23R in skin tissue, thus modeling orally dosed therapeutic efficacy in psoriatic skin tissue. The animals from Example 19 were also used for Example 20. On day 0, prior to IL-23 injection, the ipsilateral ears averaged approximately 0.4 mm. In rats injected with saline, the ears did swell as a result of the repeated intradermal injections, by an average of 0.053 mm by day 4. By comparison, injection of IL-23 caused the ears of both vehicle-treated and isotype antibody-treated rats to progressively increase in thickness, reaching an average of approximately 0.240 to 0.242 mm by day 4, respectively. […] Reductions in ear thickness at doses of 2 mg/kg, s.c. and 20 mg/kg, p.o., q.d. were not statistically significant (FIG. 9 and Table 15).

[3] = other: intracolonic, IC dose 10 mg/kg, Enteris A 60 mg/kg
[4] = other: intracolonic, IC dose 10 mg/kg, Labrasol 100 mg/kg
[5] = other: intracolonic, IC dose 10 mg/kg, NaC10 100 mg/kg
[6] = other: intracolonic, IC dose 10 mg/kg, SNAC 100 mg/kg
[7] = other: intracolonic, IC dose 10 mg/kg, Sucrose laurate 100 mg/kg
[8] = other: intracolonic, IC dose 10 mg/kg, no absorption enhancer
[9] = other: intraduodenal, ID dose 10 mg/kg, Enteris A 60 mg/kg
[10] = other: intraduodenal, ID dose 10 mg/kg, Labrasol 100 mg/kg
[11] = other: intraduodenal, ID dose 10 mg/kg, NaC10 100 mg/kg
[12] = other: intraduodenal, ID dose 10 mg/kg, SNAC 100 mg/kg
[13] = other: intraduodenal, ID dose 10 mg/kg, Sucrose laurate 100 mg/kg
[14] = other: intraduodenal, ID dose 10 mg/kg, no absorption enhancer

## CC(=O)NCCCC[C@@H]1NC(=O)[C@H](Cc2c[nH]c3c(C)cccc23)NC(=O)[C@H]([C@@H](C)O)NC(=O)[C@H](CC(N)=O)NC(=O)[C@@H](NC(C)=O)C(C)(C)SSC(C)(C)[C@@H](C(=O)N[C@@H](Cc2ccc(OCCN)cc2)C(=O)N[C@@H](Cc2ccc3ccccc3c2)C(=O)NC2(C(=O)N[C@@H](CCC(=O)O)C(=O)N[C@@H](CC(N)=O)C(=O)N[C@@H](Cc3cccnc3)C(=O)N(C)CC(N)=O)CCOCC2)NC1=O [SEQ ID NO: 1, Ac-[Pen]*—N-T-[W(7-Me)]-[Lys(Ac)]-[Pen]*-Phe[4-(2-aminoethoxy)]-[2-Nal]-[THP]-E-N-[3-Pal]-Sarc-NH2]
[1]; IC dose 10 mg/kg, Enteris A 60 mg/kg
  Fabs: 2.98%
[1]; IC dose 10 mg/kg, Labrasol 100 mg/kg
  Fabs: 5.82%
[1]; IC dose 10 mg/kg, NaC10 100 mg/kg
  Fabs: 6.36%
[1]; IC dose 10 mg/kg, SNAC 100 mg/kg
  Fabs: 1.64%
[1]; IC dose 10 mg/kg, Sucrose laurate 100 mg/kg
  Fabs: 0.939%
[1]; IC dose 10 mg/kg, no absorption enhancer
  Fabs: 0.0531%
[1]; ID dose 10 mg/kg, Enteris A 60 mg/kg
  Fabs: 5.06%
[1]; ID dose 10 mg/kg, Labrasol 100 mg/kg
  Fabs: 3.26%
[1]; ID dose 10 mg/kg, NaC10 100 mg/kg
  Fabs: 6.24%
[1]; ID dose 10 mg/kg, SNAC 100 mg/kg
  Fabs: 1.13%
[1]; ID dose 10 mg/kg, Sucrose laurate 100 mg/kg
  Fabs: 0.764%
[1]; ID dose 10 mg/kg, no absorption enhancer
  Fabs: 0.360%
[1]; [3]
  AUC(0-inf): 567 ng·h/mL
  AUC(0-t): 561 ng·h/mL
  Cmax: 626 ng/mL
  Tmax: 15 min
[1]; [4]
  AUC(0-inf): 1110 ng·h/mL
  AUC(0-t): 1100 ng·h/mL
  Cmax: 976 ng/mL
  Tmax: 15 min
[1]; [5]
  AUC(0-inf): 1210 ng·h/mL
  AUC(0-t): 1210 ng·h/mL
  Cmax: 1030 ng/mL
  Tmax: 20 min
[1]; [6]
  AUC(0-inf): 312 ng·h/mL
  AUC(0-t): 309 ng·h/mL
  Cmax: 309 ng/mL
  Tmax: 20 min
[1]; [7]
  AUC(0-inf): 179 ng·h/mL
  AUC(0-t): 176 ng·h/mL
  Cmax: 191 ng/mL
  Tmax: 15 min
[1]; [8]
  Cmax: 4.99 ng/mL
  Tmax: 35 min
[1]; [9]
  AUC(0-inf): 964 ng·h/mL
  AUC(0-t): 958 ng·h/mL
  Cmax: 988 ng/mL
  Tmax: 15 min
[1]; [10]
  AUC(0-inf): 621 ng·h/mL
  AUC(0-t): 617 ng·h/mL
  Cmax: 625 ng/mL
  Tmax: 15 min
[1]; [11]
  AUC(0-inf): 1190 ng·h/mL
  AUC(0-t): 1190 ng·h/mL
  Cmax: 1220 ng/mL
  Tmax: 15 min
[1]; [12]
  AUC(0-inf): 215 ng·h/mL
  AUC(0-t): 210 ng·h/mL
  Cmax: 209 ng/mL
  Tmax: 15 min
[1]; [13]
  AUC(0-inf): 145 ng·h/mL
  AUC(0-t): 141 ng·h/mL
  Cmax: 107 ng/mL
  Tmax: 15 min
[1]; [14]
  AUC(0-inf): 68.6 ng·h/mL
  Cmax: 23.1 ng/mL
  Tmax: 40 min
[1]; other: intraduodenal, ID dose 10 mg/kg, no absorption enhancer, last time point 2, 4, 6, 8, or 24 hours
  AUC(0-t): 62 ng·h/mL
[2]; 1 mg/kg, p.o., b.i.d., Day 1
  IL-23 induced ear thickening, comparison to control (significance): ns
[2]; 1 mg/kg, p.o., b.i.d., Day 2
  IL-23 induced ear thickening, comparison to control (significance): ns
[2]; 1 mg/kg, p.o., b.i.d., Day 3
  IL-23 induced ear thickening, comparison to control (significance): **** (p < 0.0001)
[2]; 1 mg/kg, p.o., b.i.d., Day 4
  IL-23 induced ear thickening, comparison to control (significance): **** (p < 0.0001)
[2]; 2 mg/kg, s.c., b.i.d., Day 1
  IL-23 induced ear thickening, comparison to control (significance): ns
[2]; 2 mg/kg, s.c., b.i.d., Day 2
  IL-23 induced ear thickening, comparison to control (significance): ns
[2]; 2 mg/kg, s.c., b.i.d., Day 3
  IL-23 induced ear thickening, comparison to control (significance): ns
[2]; 2 mg/kg, s.c., b.i.d., Day 4
  IL-23 induced ear thickening, comparison to control (significance): ns
[2]; 3 mg/kg, p.o., b.i.d., Day 1
  IL-23 induced ear thickening, comparison to control (significance): ns
[2]; 3 mg/kg, p.o., b.i.d., Day 2
  IL-23 induced ear thickening, comparison to control (significance): ns
[2]; 3 mg/kg, p.o., b.i.d., Day 3
  IL-23 induced ear thickening, comparison to control (significance): *** (p < 0.001)
[2]; 3 mg/kg, p.o., b.i.d., Day 4
  IL-23 induced ear thickening, comparison to control (significance): *** (p < 0.001)
[2]; 10 mg/kg, p.o., b.i.d., Day 1
  IL-23 induced ear thickening, comparison to control (significance): ns
[2]; 10 mg/kg, p.o., b.i.d., Day 2
  IL-23 induced ear thickening, comparison to control (significance): ns
[2]; 10 mg/kg, p.o., b.i.d., Day 3
  IL-23 induced ear thickening, comparison to control (significance): *** (p < 0.001)
[2]; 10 mg/kg, p.o., b.i.d., Day 4
  IL-23 induced ear thickening, comparison to control (significance): **** (p < 0.0001)
[2]; 20 mg/kg, p.o., q.d., Day 1
  IL-23 induced ear thickening, comparison to control (significance): ns
[2]; 20 mg/kg, p.o., q.d., Day 2
  IL-23 induced ear thickening, comparison to control (significance): ns
[2]; 20 mg/kg, p.o., q.d., Day 3
  IL-23 induced ear thickening, comparison to control (significance): ns
[2]; 20 mg/kg, p.o., q.d., Day 4
  IL-23 induced ear thickening, comparison to control (significance): ns
[2]; 30 mg/kg, p.o., b.i.d., Day 1
  IL-23 induced ear thickening, comparison to control (significance): ns
[2]; 30 mg/kg, p.o., b.i.d., Day 3
  IL-23 induced ear thickening, comparison to control (significance): **** (p < 0.0001)
[2]; 30 mg/kg, p.o., b.i.d., Day 4
  IL-23 induced ear thickening, comparison to control (significance): **** (p < 0.0001)
[2]; 100 mg/kg, p.o., b.i.d., Day 1
  IL-23 induced ear thickening, comparison to control (significance): ns
[2]; 100 mg/kg, p.o., b.i.d., Day 2
  IL-23 induced ear thickening, comparison to control (significance): ns
[2]; 100 mg/kg, p.o., b.i.d., Day 3
  IL-23 induced ear thickening, comparison to control (significance): **** (p < 0.0001)
[2]; 100 mg/kg, p.o., b.i.d., Day 4
  IL-23 induced ear thickening, comparison to control (significance): **** (p < 0.0001)
[2]; 300 mg/kg, b.i.d., oral
  day 4 ear swelling, average: 0.120 mm
[2]; 300 mg/kg, p.o., b.i.d., Day 1
  IL-23 induced ear thickening, comparison to control (significance): ns
[2]; 300 mg/kg, p.o., b.i.d., Day 2
  IL-23 induced ear thickening, comparison to control (significance): ns
[2]; 300 mg/kg, p.o., b.i.d., Day 3
  IL-23 induced ear thickening, comparison to control (significance): *** (p < 0.001)
[2]; 300 mg/kg, p.o., b.i.d., Day 4
  IL-23 induced ear thickening, comparison to control (significance): **** (p < 0.0001)
[2]; doses of 10 mg/kg (p.o., b.i.d.) and above
  efficacy on ear thickening: equaled or exceeded that of anti-IL-23 antibody treatment
[2]; orally administered
  IL-23 induced ear thickening: prevented
